{"source": "ChEMBL document CHEMBL1128078", "about": "“Evaluation of substituted benzamides as P2 ligands for symmetry-based inhibitors of HIV protease” (Bioorg Med Chem Lett, 1995)", "key": {"MT4 [1]": {"test_system": "MT4", "test": "Cytotoxicity against MT-4 cells using a cytopathicity assay.", "type": "functional, Homo sapiens"}, "[2]": {"test_system": "Human immunodeficiency virus 1", "test": "Anti-HIV activity against MT-4 cells using a cytopathicity assay", "type": "functional, organism-based", "details": "Human immunodeficiency virus 1, MT4; call rule not given here"}, "[3]": {"molecular_target": "Human immunodeficiency virus type 1 protease (Human immunodeficiency virus 1, UniProt Q72874)", "test": "Inhibitory activity against purified HIV protease"}, "MT4 [4]": {"test_system": "MT4", "test": "Anti-HIV activity was determined against MT-4 cells using a cytopathicity assay; NE means no effect", "type": "functional, cell-based, Homo sapiens"}}, "note": "pEC50, pIC50: −log10 of the molar value."}
{"smiles": "COc1cc(C(=O)N[C@@H](Cc2ccccc2)C[C@H](O)[C@H](Cc2ccccc2)NC(=O)OCc2ccccc2)ccc1N", "values": [{"measurement": "CCIC50", "setting": "MT4 [1]", "result": 18, "unit": "µM"}, {"measurement": "pEC50", "setting": "[2]", "result": "< 5.10"}, {"measurement": "pIC50", "setting": "[3]", "result": 7.98}]}
{"smiles": "CC(C)(C)OC(=O)N[C@@H](Cc1ccccc1)C[C@H](O)[C@H](Cc1ccccc1)NC(=O)c1cccc(O)c1", "values": [{"measurement": "CCIC50", "setting": "MT4 [1]", "result": 45, "unit": "µM"}, {"measurement": "pEC50", "setting": "[2]", "result": 5.80}, {"measurement": "pIC50", "setting": "[3]", "result": 8.47}]}
{"smiles": "O=C(N[C@@H](Cc1ccccc1)C[C@H](O)[C@H](Cc1ccccc1)NC(=O)OCc1ccccc1)OCc1ccccc1", "values": [{"measurement": "CCIC50", "setting": "MT4 [1]", "result": ">100", "unit": "µM"}, {"measurement": "pEC50", "setting": "[2]", "result": "< 4.52"}, {"measurement": "pIC50", "setting": "[3]", "result": 8.25}]}
{"smiles": "COc1cc(C(=O)N[C@@H](Cc2ccccc2)[C@@H](O)C[C@H](Cc2ccccc2)NC(=O)OC(C)(C)C)ccc1O", "values": [{"measurement": "CCIC50", "setting": "MT4 [1]", "result": 43, "unit": "µM"}, {"measurement": "pEC50", "setting": "[2]", "result": 5.55}, {"measurement": "pIC50", "setting": "[3]", "result": 8.48}]}
{"smiles": "CC(C)(C)OC(=O)N[C@@H](Cc1ccccc1)C[C@H](O)[C@H](Cc1ccccc1)NC(=O)c1ccc(O)c(O)c1", "values": [{"measurement": "CCIC50", "setting": "MT4 [1]", "result": 21, "unit": "µM"}, {"measurement": "pEC50", "setting": "[2]", "result": 5.54}, {"measurement": "pIC50", "setting": "[3]", "result": 8.39}]}
{"smiles": "COc1cc(C(=O)N[C@@H](Cc2ccccc2)[C@@H](O)C[C@H](Cc2ccccc2)NC(=O)OC(C)(C)C)ccc1N", "values": [{"measurement": "CCIC50", "setting": "MT4 [1]", "result": 38, "unit": "µM"}, {"measurement": "pEC50", "setting": "[2]", "result": 5.49}, {"measurement": "pIC50", "setting": "[3]", "result": 8.12}]}
{"smiles": "COc1cccc(C(=O)N[C@@H](Cc2ccccc2)[C@@H](O)C[C@H](Cc2ccccc2)NC(=O)OC(C)(C)C)c1", "values": [{"measurement": "CCIC50", "setting": "MT4 [1]", "result": 19, "unit": "µM"}, {"measurement": "pEC50", "setting": "[2]", "result": "< 5.00"}, {"measurement": "pIC50", "setting": "[3]", "result": 7.64}]}
{"smiles": "Cc1c(N)cccc1C(=O)N[C@@H](Cc1ccccc1)[C@@H](O)C[C@H](Cc1ccccc1)NC(=O)OC(C)(C)C", "values": [{"measurement": "CCIC50", "setting": "MT4 [1]", "result": 56, "unit": "µM"}, {"measurement": "pEC50", "setting": "[2]", "result": 5.85}, {"measurement": "pIC50", "setting": "[3]", "result": 8.59}]}
{"smiles": "CC(C)(C)OC(=O)N[C@@H](Cc1ccccc1)C[C@H](O)[C@H](Cc1ccccc1)NC(=O)c1ccc(O)c(N)c1", "values": [{"measurement": "CCIC50", "setting": "MT4 [1]", "result": 57, "unit": "µM"}, {"measurement": "pEC50", "setting": "[2]", "result": 5.30}, {"measurement": "pIC50", "setting": "[3]", "result": 8.12}]}
{"smiles": "Nc1ccc(C(=O)N[C@@H](Cc2ccccc2)C[C@H](O)[C@H](Cc2ccccc2)NC(=O)OCc2ccccc2)cc1O", "values": [{"measurement": "CCIC50", "setting": "MT4 [1]", "result": 18, "unit": "µM"}, {"measurement": "pEC50", "setting": "[2]", "result": "< 5.00"}, {"measurement": "pIC50", "setting": "[3]", "result": 7.66}]}
{"smiles": "CC(C)(C)OC(=O)N[C@@H](Cc1ccccc1)C[C@H](O)[C@H](Cc1ccccc1)NC(=O)c1ccc(N)c(N)c1", "values": [{"measurement": "CCIC50", "setting": "MT4 [1]", "result": 81, "unit": "µM"}, {"measurement": "pEC50", "setting": "[2]", "result": 5.12}, {"measurement": "pIC50", "setting": "[3]", "result": 8.02}]}
{"smiles": "O=C(N[C@@H](Cc1ccccc1)[C@@H](O)C[C@H](Cc1ccccc1)NC(=O)c1ccc(O)cc1Cl)OCc1ccccc1", "values": [{"measurement": "CCIC50", "setting": "MT4 [1]", "result": 18, "unit": "µM"}, {"measurement": "pEC50", "setting": "[2]", "result": 5.66}, {"measurement": "pIC50", "setting": "[3]", "result": 8.89}]}
{"smiles": "CC(C)(C)OC(=O)N[C@@H](Cc1ccccc1)C[C@H](O)[C@H](Cc1ccccc1)NC(=O)c1cc(O)cc(O)c1", "values": [{"measurement": "CCIC50", "setting": "MT4 [1]", "result": 53, "unit": "µM"}, {"measurement": "pEC50", "setting": "[2]", "result": 4.96}, {"measurement": "pIC50", "setting": "[3]", "result": 7.29}]}
{"smiles": "O=C(N[C@@H](Cc1ccccc1)[C@@H](O)C[C@H](Cc1ccccc1)NC(=O)c1ccccc1)OCc1ccccc1", "values": [{"measurement": "CCIC50", "setting": "MT4 [1]", "result": ">100", "unit": "µM"}, {"measurement": "pEC50", "setting": "[2]", "result": "< 5.00"}, {"measurement": "pIC50", "setting": "[3]", "result": 7.51}]}
{"smiles": "CC(C)(C)OC(=O)N[C@@H](Cc1ccccc1)C[C@H](O)[C@H](Cc1ccccc1)NC(=O)c1ccc(N)c(O)c1", "values": [{"measurement": "CCIC50", "setting": "MT4 [1]", "result": 11, "unit": "µM"}, {"measurement": "pIC50", "setting": "[3]", "result": 7.96}, {"measurement": "EC50", "setting": "MT4 [4]", "result": "Not Active"}]}
{"smiles": "CC(C)(C)OC(=O)N[C@@H](Cc1ccccc1)C[C@H](O)[C@H](Cc1ccccc1)NC(=O)c1ccccc1O", "values": [{"measurement": "CCIC50", "setting": "MT4 [1]", "result": ">100", "unit": "µM"}, {"measurement": "pEC50", "setting": "[2]", "result": "< 4.12"}, {"measurement": "pIC50", "setting": "[3]", "result": 6.84}]}
{"smiles": "CC(C)(C)OC(=O)N[C@@H](Cc1ccccc1)C[C@H](O)[C@H](Cc1ccccc1)NC(=O)c1ccccc1", "values": [{"measurement": "CCIC50", "setting": "MT4 [1]", "result": 16, "unit": "µM"}, {"measurement": "pEC50", "setting": "[2]", "result": 5.37}, {"measurement": "pIC50", "setting": "[3]", "result": 8.35}]}
{"smiles": "CC(C)(C)OC(=O)N[C@@H](Cc1ccccc1)C[C@H](O)[C@H](Cc1ccccc1)NC(=O)c1cc(O)ccc1Cl", "values": [{"measurement": "CCIC50", "setting": "MT4 [1]", "result": 19, "unit": "µM"}, {"measurement": "pEC50", "setting": "[2]", "result": 5.43}, {"measurement": "pIC50", "setting": "[3]", "result": 7.92}]}
{"smiles": "Nc1ccc(C(=O)N[C@@H](Cc2ccccc2)C[C@H](O)[C@H](Cc2ccccc2)NC(=O)OCc2ccccc2)c(Cl)c1", "values": [{"measurement": "CCIC50", "setting": "MT4 [1]", "result": 15, "unit": "µM"}, {"measurement": "pEC50", "setting": "[2]", "result": "< 5.00"}, {"measurement": "pIC50", "setting": "[3]", "result": 8.21}]}
{"smiles": "CC(C)(C)OC(=O)N[C@@H](Cc1ccccc1)C[C@H](O)[C@H](Cc1ccccc1)NC(=O)c1c(Cl)cccc1Cl", "values": [{"measurement": "CCIC50", "setting": "MT4 [1]", "result": 19, "unit": "µM"}, {"measurement": "pEC50", "setting": "[2]", "result": "< 5.00"}, {"measurement": "pIC50", "setting": "[3]", "result": 7.17}]}
{"smiles": "CC(C)(C)OC(=O)N[C@@H](Cc1ccccc1)C[C@H](O)[C@H](Cc1ccccc1)NC(=O)c1c(Cl)ccc(N)c1Cl", "values": [{"measurement": "pIC50", "setting": "[3]", "result": 7.51}]}
{"smiles": "CC(C)(C)OC(=O)N[C@@H](Cc1ccccc1)C[C@H](O)[C@H](Cc1ccccc1)NC(=O)c1cccc(N)c1Cl", "values": [{"measurement": "CCIC50", "setting": "MT4 [1]", "result": 55, "unit": "µM"}, {"measurement": "pEC50", "setting": "[2]", "result": 5.51}, {"measurement": "pIC50", "setting": "[3]", "result": 8.28}]}
{"smiles": "CC(C)(C)OC(=O)N[C@@H](Cc1ccccc1)C[C@H](O)[C@H](Cc1ccccc1)NC(=O)c1cc(N)cc(N)c1", "values": [{"measurement": "CCIC50", "setting": "MT4 [1]", "result": 92, "unit": "µM"}, {"measurement": "pIC50", "setting": "[3]", "result": 6.60}, {"measurement": "EC50", "setting": "MT4 [4]", "result": "Not Active"}]}
{"smiles": "CC(C)(C)OC(=O)N[C@@H](Cc1ccccc1)C[C@H](O)[C@H](Cc1ccccc1)NC(=O)c1ccc(N)cc1Cl", "values": [{"measurement": "CCIC50", "setting": "MT4 [1]", "result": 48, "unit": "µM"}, {"measurement": "pEC50", "setting": "[2]", "result": 5.54}, {"measurement": "pIC50", "setting": "[3]", "result": 8.47}]}
{"smiles": "CC(C)(C)OC(=O)N[C@@H](Cc1ccccc1)C[C@H](O)[C@H](Cc1ccccc1)NC(=O)c1ccc(O)cc1", "values": [{"measurement": "CCIC50", "setting": "MT4 [1]", "result": 29, "unit": "µM"}, {"measurement": "pEC50", "setting": "[2]", "result": 5.32}, {"measurement": "pIC50", "setting": "[3]", "result": 8.48}]}
{"smiles": "CC(C)(C)OC(=O)N[C@@H](Cc1ccccc1)C[C@H](O)[C@H](Cc1ccccc1)NC(=O)c1cc(N)ccc1Cl", "values": [{"measurement": "CCIC50", "setting": "MT4 [1]", "result": ">100", "unit": "µM"}, {"measurement": "pEC50", "setting": "[2]", "result": 5.74}, {"measurement": "pIC50", "setting": "[3]", "result": 8.48}]}
{"smiles": "CC(C)(C)OC(=O)N[C@@H](Cc1ccccc1)C[C@H](O)[C@H](Cc1ccccc1)NC(=O)c1ccc(O)cc1Cl", "values": [{"measurement": "CCIC50", "setting": "MT4 [1]", "result": 23, "unit": "µM"}, {"measurement": "pEC50", "setting": "[2]", "result": 5.74}, {"measurement": "pIC50", "setting": "[3]", "result": 8.85}]}
{"smiles": "Cc1c(O)cccc1C(=O)N[C@@H](Cc1ccccc1)[C@@H](O)C[C@H](Cc1ccccc1)NC(=O)OC(C)(C)C", "values": [{"measurement": "CCIC50", "setting": "MT4 [1]", "result": 47, "unit": "µM"}, {"measurement": "pEC50", "setting": "[2]", "result": 5.92}, {"measurement": "pIC50", "setting": "[3]", "result": 8.80}]}
{"smiles": "CC(C)(C)OC(=O)N[C@@H](Cc1ccccc1)C[C@H](O)[C@H](Cc1ccccc1)NC(=O)OC(C)(C)C", "values": [{"measurement": "pIC50", "setting": "[3]", "result": 8.28}]}
{"smiles": "CC(C)c1nc(CN(C)C(=O)N[C@H](C(=O)N[C@@H](Cc2ccccc2)C[C@H](O)[C@H](Cc2ccccc2)NC(=O)OCc2cncs2)C(C)C)cs1", "note": "[RITONAVIR]", "values": [{"measurement": "pEC50", "setting": "[2]", "result": 7.66}]}
